Results reported in ChEMBL document CHEMBL2331268, “The interaction of imidazole-, imidazolium-, and tetrazolium-containing compounds with DNA” (Bioorg Med Chem Lett, 2013).
Activity calls are given as the source filed them. The calls are words filed in the database; no cut-off is given here.

Experiments:
[1] = Displacement of SYBR green I from salmon testes DNA assessed as compound treated with DNA followed by SYBR green I added relative to control; parameters: species or system Salmonidae
Salmonidae [2] = test: Displacement of SYBR green I from salmon testes DNA assessed as compound treated with SYBR green I followed by DNA added relative to control
Salmonidae [3] = test: Displacement of SYBR green I from salmon testes DNA assessed as SYBR green I treated with DNA followed by compound added relative to control

SMILES	IC50 [1] [mM]	Activity (Salmonidae [2])	Activity (Salmonidae [3])
c1cn(CCCCn2ccnc2)cn1	> 2.5	–	–
O=[N+]([O-])c1ccc(-n2nc(-c3ccccc3)n[n+]2-c2ccc(I)cc2)cc1 [IODONITROTETRAZOLIUM CHLORIDE]	> 2.5	–	–
C[n+]1ccn(-c2ccc(-c3ccc(-n4cc[n+](C)c4)cc3)cc2)c1	0.423	–	–
Clc1ccccc1Cn1cc[n+](Cc2ccccc2Cl)c1	> 2.5	–	–
c1ccc(-c2nn(-c3ccccc3)[n+](-c3ccc(-c4ccc(-[n+]5nc(-c6ccccc6)nn5-c5ccccc5)cc4)cc3)n2)cc1 [NEOTETRAZOLIUM CHLORIDE]	0.066	–	–
COc1cc(-c2ccc(-[n+]3nc(-c4ccccc4)nn3-c3ccc([N+](=O)[O-])cc3)c(OC)c2)ccc1-[n+]1nc(-c2ccccc2)nn1-c1ccc([N+](=O)[O-])cc1 [NITROBLUE TETRAZOLIUM CHLORIDE]	0.36	–	–
C[n+]1ccn(-c2ccc(-n3cc[n+](C)c3)cc2)c1	> 2.5	–	–
Clc1ccc(Cn2cc[n+](Cc3ccc(Cl)cc3)c2)cc1	> 2.5	–	–
Ic1ccc(Cn2cc[n+](Cc3ccc(I)cc3)c2)cc1	> 2.5	–	–
c1ccc(-c2nn(-c3ccccc3)[n+](-c3ccccc3)n2)cc1 [TETRAZOLIUM RED]	> 2.5	–	–
c1cn(CCCCCCCCCCCCCCCCCCn2ccnc2)cn1	0.058	Active	–
c1ccc2cc(Cn3cc[n+](Cc4ccc5ccccc5c4)c3)ccc2c1	> 2.5	–	–
C[n+]1ccn(CCCCCCn2cc[n+](C)c2)c1	> 2.5	–	–
c1cn(CCCCCCCCn2ccnc2)cn1	> 2.5	–	–
C[n+]1ccn(CCCCCCCCCCCCCCCCCCn2cc[n+](C)c2)c1	0.0074	–	–
C[n+]1ccn(CCCCCCCCCCCCCCCn2cc[n+](C)c2)c1	> 2.5	–	Active
C[n+]1ccn(CCCCCCCCCCCCCn2cc[n+](C)c2)c1	0.0252	–	–
c1cn(CCCCCCCCCCCn2ccnc2)cn1	> 2.5	–	–
c1cn(-c2ccc(-n3ccnc3)cc2)cn1	> 2.5	–	–
O=[N+]([O-])c1ccc(C[n+]2ccn(-c3ccc(-c4ccc(-n5cc[n+](Cc6ccc([N+](=O)[O-])cc6)c5)cc4)cc3)c2)cc1	0.0004	–	–
COc1cc(-c2ccc(-n3nc(-c4ccc([N+](=O)[O-])cc4)n[n+]3-c3ccc([N+](=O)[O-])cc3)c(OC)c2)ccc1-n1nc(-c2ccc([N+](=O)[O-])cc2)n[n+]1-c1ccc([N+](=O)[O-])cc1	0.034	–	–
O=[N+]([O-])c1ccc(Cn2cc[n+](Cc3ccc([N+](=O)[O-])cc3)c2)cc1	0.0003	–	–

More lines, now with the values ahead:

IC50 [1] [mM]	Activity (Salmonidae [2])	Activity (Salmonidae [3])	SMILES
> 2.5	–	–	C[n+]1ccn(CCCCCCCCCCn2cc[n+](C)c2)c1
> 2.5	–	–	C[n+]1ccn(CCCCCCCCn2cc[n+](C)c2)c1
> 2.5	–	–	c1cn(CCCCCCCCCCCCCCn2ccnc2)cn1
0.186	–	–	c1cn(CCCCCCCCCCCCCn2ccnc2)cn1
0.008	–	–	C[n+]1ccn(CCCCCCCCCCCCCCCCCCCCn2cc[n+](C)c2)c1
> 2.5	–	–	c1ccc(-c2nn(-c3ccccc3)[n+](-c3cccc4ccccc34)n2)cc1 [TETRAZOLIUM VIOLET]
> 2.5	–	–	CC[n+]1ccn(CCCCCCCCCCCCn2cc[n+](CC)c2)c1
> 2.5	–	–	c1cn(-c2ccc(-c3ccc(-n4ccnc4)cc3)cc2)cn1
1.21	–	–	C[n+]1ccn(CCCCCCCCCCCCCCn2cc[n+](C)c2)c1
> 2.5	–	–	C[n+]1ccn(Cc2ccc(-c3ccc(Cn4cc[n+](C)c4)cc3)cc2)c1
> 2.5	–	–	C[n+]1ccn(CCCCCCCCCCCCn2cc[n+](C)c2)c1
> 2.5	–	–	Brc1ccc(Cn2cc[n+](Cc3ccc(Br)cc3)c2)cc1
0.03	Active	Active	C[n+]1ccn(CCCCCCCCCCCCCCCCn2cc[n+](C)c2)c1
> 2.5	–	–	C[n+]1ccn(CCCOc2ccc(OCCCn3cc[n+](C)c3)cc2)c1
0.37	–	–	c1ccc(C[n+]2ccn(-c3ccc(-c4ccc(-n5cc[n+](Cc6ccccc6)c5)cc4)cc3)c2)cc1
> 2.5	–	–	C[n+]1ccn(CCCCCCCCCCCn2cc[n+](C)c2)c1
> 2.5	–	–	c1cn(CCCCCCCCCCCCn2ccnc2)cn1
> 2.5	–	–	Brc1ccc(C[n+]2ccn(Cc3ccccc3)c2)cc1
> 2.5	–	–	c1cn(CCCCCCCCCCn2ccnc2)cn1
> 2.5	–	–	COc1cc(-c2ccc(-n3nc(-c4ccccc4)n[n+]3-c3ccccc3)c(OC)c2)ccc1-n1nc(-c2ccccc2)n[n+]1-c1ccccc1 [TETRAZOLIUM BLUE CHLORIDE]
> 2.5	–	–	Brc1cccc(Cn2cc[n+](Cc3cccc(Br)c3)c2)c1
0.052	–	Active	c1cn(CCCCCCCCCCCCCCCCn2ccnc2)cn1
> 2.5	–	–	C[n+]1ccn(CCCCn2cc[n+](C)c2)c1
0.109	–	–	CCC[n+]1ccn(CCCCCCCCCCCCn2cc[n+](CCC)c2)c1
> 2.5	–	–	c1cn(CCCCCCn2ccnc2)cn1
> 2.5	–	–	c1cn(CCCCCCCCCCCCCCCCCCCCn2ccnc2)cn1
> 2.5	–	–	c1cn(Cc2ccc(-c3ccc(Cn4ccnc4)cc3)cc2)cn1
> 2.5	–	–	c1cn(CCCCCCCCCCCCCCCn2ccnc2)cn1
